1 compound from paper PMC9877462, “Real time monitoring and evaluation of the inhibition effect of fucoxanthin against α-amylase activity by using QCM-A” (Frontiers in Nutrition, 2023) can be followed below.

The experiment has as its target T1, α-amylase (from human saliva, EC 3.2.1.1) (Homo sapiens, UniProt P0DUB6).
T1 construct: gene AMY1A
T1 sequence (P0DUB6 16-511): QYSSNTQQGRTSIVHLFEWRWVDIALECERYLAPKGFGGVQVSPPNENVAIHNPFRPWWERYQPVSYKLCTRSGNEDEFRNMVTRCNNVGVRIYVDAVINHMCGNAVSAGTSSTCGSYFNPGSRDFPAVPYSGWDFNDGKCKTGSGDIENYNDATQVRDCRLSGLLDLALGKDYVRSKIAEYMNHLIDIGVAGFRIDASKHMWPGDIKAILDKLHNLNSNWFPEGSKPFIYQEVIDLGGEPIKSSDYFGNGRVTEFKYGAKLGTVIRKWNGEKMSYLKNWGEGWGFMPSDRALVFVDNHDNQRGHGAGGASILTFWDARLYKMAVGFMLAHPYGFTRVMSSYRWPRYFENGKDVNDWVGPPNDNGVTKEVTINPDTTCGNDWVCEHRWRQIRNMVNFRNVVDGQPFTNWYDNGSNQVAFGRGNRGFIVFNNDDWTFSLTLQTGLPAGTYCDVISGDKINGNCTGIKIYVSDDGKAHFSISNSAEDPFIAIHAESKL
Briefly: Enzyme inhibition kinetics (Lineweaver-Burk and Dixon plots) with amylose substrate; amylose-immobilized QCM-A hydrolysis assay. The format is biochemical.

One may read the Ki as the equilibrium dissociation constant of an inhibitor or competing ligand from its target. Lower therefore signals tighter binding.

Each structure is given as a SMILES string.

Regarding `CC(=O)O[C@H]1CC(C)(C)C(=C=C/C(C)=C/C=C/C(C)=C/C=C/C=C(C)/C=C/C=C(\C)C(=O)C[C@@]23O[C@]2(C)C[C@@H](O)CC3(C)C)[C@](C)(O)C1` [fucoxanthin], the affinity, expressed as Ki, was 36.3 µM.
